From paper PMC6834760 (2019)

System: Apt(ATP) (DNA, aptamer) TCTCTCACCTGGGGGAGTATTGCGGAGGAAGGT
Assay: FAM fluorescence quenching titration
Conditions: 100 mM NaCl, 5 mM MgCl2, 20 mM Tris-HCl, pH 7.4, 66.7 nM aptamer

Q: For `Nc1nc2c(ncn2[C@@H]2O[C@H](COP(=O)(O)OP(=O)(O)OP(=O)(O)O)[C@@H](O)[C@H]2O)c(=O)[nH]1`, which binding (18.6% quenching at about 330 μM) is on record?
A: weak

Q: How did the binding (67.1% quenching at about 0.33 mM ATP) turn out when `Nc1ncnc2c1ncn2[C@@H]1O[C@H](COP(=O)(O)OP(=O)(O)OP(=O)(O)O)[C@@H](O)[C@H]1O` was run?
A: yes

Q: Which binding (weaker quenching than ATP, up to about 330 μM) does the source give for `O=c1ccn([C@@H]2O[C@H](COP(=O)(O)OP(=O)(O)OP(=O)(O)O)[C@@H](O)[C@H]2O)c(=O)[nH]1` here?
A: weak

Q: `Nc1ccn([C@@H]2O[C@H](COP(=O)(O)OP(=O)(O)OP(=O)(O)O)[C@@H](O)[C@H]2O)c(=O)n1` was tested. Which binding (35.7% quenching at about 330 μM) did it give?
A: weak
